Key:
Experiment in all cases: Test F preemergence
Details in all cases: 21 days, scale 0 to 100
kochia = assay type: in vivo, Kochia scoparia
From the text: (§1) Seeds of plant species selected from bermudagrass (Cynodon dactylon), surinam grass (Brachiaria decumbens), large (Lg) crabgrass (Digitaria sanguinalis), crabgrass, naked (naked crabgrass, Digitaria nuda), foxtail, green (green foxtail, Setaria viridis), johnsongrass (Sorghum halepense), kochia (Kochia scoparia), morningglory (pitted morningglory, Ipomoea lacunosa), nutsedge, purple (purple nutsedge, Cyperus rotundus), ragweed (common ragweed, Ambrosia elatior), mustard, black (black mustard, Brassica nigra), guineagrass (Panicum maximum), dallisgrass (Paspalum dilatatum), barnyardgrass (Echinochloa crus-galli), sandbur (southern sandbur, Cenchrus echinatus), sowthistle (common sowthistle, Sonchus oleraceous), Italian ryegrass (Lolium multiflorum), signalgrass (broadleaf signalgrass, Brachiaria platyphylla), dayflower (Virginia (VA) dayflower, Commelina virginica), bluegrass (annual bluegrass, Poa annua), quackgrass (Elytrigia repens), mallow (common mallow, Malva sylvestris), buckwheat, wild (wild buckwheat, Polygonum convolvulus), leafy spurge (Euphorbia esula), chickweed (common chickweed, Stellaria media), wild poinsettia (Euphorbia heterophylla), and pigweed (Amaranthus retroflexus) were planted into a blend of loam soil and sand and treated preemergence with test chemicals formulated in a non-phytotoxic solvent mixture which included a surfactant.
(§2) Treated plants and controls were maintained in a greenhouse for 21 days, after which time all species were compared to controls and visually evaluated. Plant response ratings, summarized in Table F, are based on a scale of 0 to 100 where 0 is no effect and 100 is complete control. A dash (-) response means no test result.

wild poinsettia = assay type: in vivo, Euphorbia heterophylla
From the text: as §1, §2

crabgrass, naked = assay type: in vivo, Digitaria nuda
From the text: as §1, §2

sandbur = assay type: in vivo, Cenchrus echinatus
From the text: as §1, §2

foxtail, green = assay type: in vivo, Setaria viridis
From the text: as §1, §2

ragweed = assay type: in vivo, Ambrosia elatior
From the text: as §1, §2

Italian ryegrass = assay type: in vivo, Lolium multiflorum
From the text: as §1, §2

chickweed = assay type: in vivo, Stellaria media
From the text: as §1, §2

[1] = system: morningglory (pitted morningglory); assay type: in vivo, Ipomoea lacunosa
From the text: as §1, §2

dayflower = assay type: in vivo, Commelina virginica
From the text: as §1, §2

mallow = assay type: in vivo, Malva sylvestris
From the text: as §1, §2

quackgrass = assay type: in vivo, Elytrigia repens
From the text: as §1, §2

dallisgrass = assay type: in vivo, Paspalum dilatatum
From the text: as §1, §2

sowthistle = assay type: in vivo, Sonchus oleraceous
From the text: as §1, §2

leafy spurge = assay type: in vivo, Euphorbia esula
From the text: as §1, §2

buckwheat, wild = assay type: in vivo, Polygonum convolvulus
From the text: as §1, §2

johnsongrass = assay type: in vivo, Sorghum halepense
From the text: as §1, §2

mustard, black = assay type: in vivo, Brassica nigra
From the text: as §1, §2

bluegrass = assay type: in vivo, Poa annua
From the text: as §1, §2

## N#Cc1cccc(Oc2ncc(Cl)cn2)c1-n1cc(C(F)(F)F)cn1 [Compound 58, 3-[(5-chloro-2-pyrimidinyl)oxy]-2-[4-(trifluoromethyl)-1H-pyrazol-1-yl]benzonitrile]
kochia; 16 g ai/ha
  Plant response rating, Kochia: 98
kochia; 31 g ai/ha
  Plant response rating, Kochia: 100
kochia; 62 g ai/ha
  Plant response rating, Kochia: 100
kochia; 125 g ai/ha
  Plant response rating, Kochia: 100
kochia; 250 g ai/ha
  Plant response rating, Kochia: 100
Wild poinsettia; 16 g ai/ha
  Plant response rating, Poinsettia, Wild: 25
Wild poinsettia; 31 g ai/ha
  Plant response rating, Poinsettia, Wild: 65
Wild poinsettia; 62 g ai/ha
  Plant response rating, Poinsettia, Wild: 100
Wild poinsettia; 125 g ai/ha
  Plant response rating, Poinsettia, Wild: 100
Wild poinsettia; 250 g ai/ha
  Plant response rating, Poinsettia, Wild: 100
crabgrass, naked; 16 g ai/ha
  Plant response rating, Crabgrass, Naked: 100
crabgrass, naked; 31 g ai/ha
  Plant response rating, Crabgrass, Naked: 100
crabgrass, naked; 62 g ai/ha
  Plant response rating, Crabgrass, Naked: 100
crabgrass, naked; 125 g ai/ha
  Plant response rating, Crabgrass, Naked: 100
crabgrass, naked; 250 g ai/ha
  Plant response rating, Crabgrass, Naked: 100
sandbur; 16 g ai/ha
  Plant response rating, Sandbur: 10
sandbur; 31 g ai/ha
  Plant response rating, Sandbur: 35
sandbur; 62 g ai/ha
  Plant response rating, Sandbur: 95
sandbur; 125 g ai/ha
  Plant response rating, Sandbur: 100
sandbur; 250 g ai/ha
  Plant response rating, Sandbur: 100
foxtail, green; 16 g ai/ha
  Plant response rating, Foxtail, Green: 75
foxtail, green; 31 g ai/ha
  Plant response rating, Foxtail, Green: 100
foxtail, green; 62 g ai/ha
  Plant response rating, Foxtail, Green: 100
foxtail, green; 125 g ai/ha
  Plant response rating, Foxtail, Green: 100
foxtail, green; 250 g ai/ha
  Plant response rating, Foxtail, Green: 100
ragweed; 16 g ai/ha
  Plant response rating, Ragweed: 60
ragweed; 31 g ai/ha
  Plant response rating, Ragweed: 65
ragweed; 62 g ai/ha
  Plant response rating, Ragweed: 70
ragweed; 125 g ai/ha
  Plant response rating, Ragweed: 75
ragweed; 250 g ai/ha
  Plant response rating, Ragweed: 95
Italian ryegrass; 16 g ai/ha
  Plant response rating, Ryegrass, Italian: 35
Italian ryegrass; 31 g ai/ha
  Plant response rating, Ryegrass, Italian: 95
Italian ryegrass; 62 g ai/ha
  Plant response rating, Ryegrass, Italian: 98
Italian ryegrass; 125 g ai/ha
  Plant response rating, Ryegrass, Italian: 100
Italian ryegrass; 250 g ai/ha
  Plant response rating, Ryegrass, Italian: 100
chickweed; 16 g ai/ha
  Plant response rating, Chickweed: 100
chickweed; 31 g ai/ha
  Plant response rating, Chickweed: 100
chickweed; 62 g ai/ha
  Plant response rating, Chickweed: 100
chickweed; 125 g ai/ha
  Plant response rating, Chickweed: 100
chickweed; 250 g ai/ha
  Plant response rating, Chickweed: 100
[1]; 16 g ai/ha
  Plant response rating, Morningglory: 100
[1]; 31 g ai/ha
  Plant response rating, Morningglory: 98
[1]; 62 g ai/ha
  Plant response rating, Morningglory: 100
[1]; 125 g ai/ha
  Plant response rating, Morningglory: 100
[1]; 250 g ai/ha
  Plant response rating, Morningglory: 100
dayflower; 16 g ai/ha
  Plant response rating, Dayflower, VA: 90
dayflower; 31 g ai/ha
  Plant response rating, Dayflower, VA: 95
dayflower; 62 g ai/ha
  Plant response rating, Dayflower, VA: 100
dayflower; 125 g ai/ha
  Plant response rating, Dayflower, VA: 100
dayflower; 250 g ai/ha
  Plant response rating, Dayflower, VA: 100
mallow; 16 g ai/ha
  Plant response rating, Mallow: 60
mallow; 31 g ai/ha
  Plant response rating, Mallow: 100
mallow; 62 g ai/ha
  Plant response rating, Mallow: 98
mallow; 125 g ai/ha
  Plant response rating, Mallow: 100
mallow; 250 g ai/ha
  Plant response rating, Mallow: 100
quackgrass; 16 g ai/ha
  Plant response rating, Quackgrass: 50
quackgrass; 31 g ai/ha
  Plant response rating, Quackgrass: 70
quackgrass; 62 g ai/ha
  Plant response rating, Quackgrass: 98
quackgrass; 125 g ai/ha
  Plant response rating, Quackgrass: 100
quackgrass; 250 g ai/ha
  Plant response rating, Quackgrass: 100
dallisgrass; 16 g ai/ha
  Plant response rating, Dallisgrass: 90
dallisgrass; 31 g ai/ha
  Plant response rating, Dallisgrass: 100
dallisgrass; 62 g ai/ha
  Plant response rating, Dallisgrass: 100
dallisgrass; 125 g ai/ha
  Plant response rating, Dallisgrass: 100
dallisgrass; 250 g ai/ha
  Plant response rating, Dallisgrass: 100
sowthistle; 16 g ai/ha
  Plant response rating, Sowthistle: 100
sowthistle; 31 g ai/ha
  Plant response rating, Sowthistle: 100
sowthistle; 62 g ai/ha
  Plant response rating, Sowthistle: 100
sowthistle; 125 g ai/ha
  Plant response rating, Sowthistle: 100
sowthistle; 250 g ai/ha
  Plant response rating, Sowthistle: 100
Leafy spurge; 16 g ai/ha
  Plant response rating, Leafy Spurge: 100
Leafy spurge; 31 g ai/ha
  Plant response rating, Leafy Spurge: 95
Leafy spurge; 62 g ai/ha
  Plant response rating, Leafy Spurge: 100
Leafy spurge; 125 g ai/ha
  Plant response rating, Leafy Spurge: 100
Leafy spurge; 250 g ai/ha
  Plant response rating, Leafy Spurge: 100
buckwheat, wild; 16 g ai/ha
  Plant response rating, Buckwheat, Wild: 90
buckwheat, wild; 31 g ai/ha
  Plant response rating, Buckwheat, Wild: 100
buckwheat, wild; 62 g ai/ha
  Plant response rating, Buckwheat, Wild: 100
buckwheat, wild; 125 g ai/ha
  Plant response rating, Buckwheat, Wild: 100
buckwheat, wild; 250 g ai/ha
  Plant response rating, Buckwheat, Wild: 100
johnsongrass; 16 g ai/ha
  Plant response rating, Johnsongrass: 65
johnsongrass; 31 g ai/ha
  Plant response rating, Johnsongrass: 98
johnsongrass; 62 g ai/ha
  Plant response rating, Johnsongrass: 100
johnsongrass; 125 g ai/ha
  Plant response rating, Johnsongrass: 100
johnsongrass; 250 g ai/ha
  Plant response rating, Johnsongrass: 100
mustard, black; 16 g ai/ha
  Plant response rating, Mustard, Black: 100
mustard, black; 31 g ai/ha
  Plant response rating, Mustard, Black: 100
mustard, black; 62 g ai/ha
  Plant response rating, Mustard, Black: 100
mustard, black; 125 g ai/ha
  Plant response rating, Mustard, Black: 100
mustard, black; 250 g ai/ha
  Plant response rating, Mustard, Black: 100
bluegrass; 16 g ai/ha
  Plant response rating, Bluegrass: 50
bluegrass; 31 g ai/ha
  Plant response rating, Bluegrass: 80
bluegrass; 62 g ai/ha
  Plant response rating, Bluegrass: 98
bluegrass; 125 g ai/ha
  Plant response rating, Bluegrass: 98
bluegrass; 250 g ai/ha
  Plant response rating, Bluegrass: 100

From patent publication US9695155B2, “Herbicidal substituted pyrimidinyloxy benzene compounds” (E. I. DU PONT DE NEMOURS AND COMPANY, priority 2013, dated 2017)
